# Data taken from the supplement of paper PMC5303821, “Major sulfonate transporter Soa1 in Saccharomyces cerevisiae and considerable substrate diversity in its fungal family” (Nature Communications, 2017).
# What was measured:
# Conditions in all cases: sulfur source concentration 200 µM; S. cerevisiae S288C/BY sul1Δ sul2Δ soa1Δ with transporter ortholog inserted at SOA1 locus; sulfur-free B medium, 4% glucose, pH 6.5, sole sulfur source
# [1] = tested on: Ogataea parapolymorpha_XP_013935289; assay: lag phase before growth; higher = slower start of growth
# Method: (§1)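 S. cerevisiae sul1Δ sul2Δ soa1Δ strains expressing 20 fungal SOA1 orthologs (or no transporter, 'soa1 del') were grown in liquid sulfur-free B medium, 4% glucose, pH 6.5 (7 mM K2HPO4). The strains were sulfur-starved for 3 days beforehand. Each sulfur compound was the sole sulfur source at 200 µM (sulfate also at 40 mM). OD600 curves of duplicate cultures were averaged and fitted (logistic / Richards, GroFit) to give maximal growth rate, maximal density and lag phase; temperature not stated.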
# [2] = tested on: Saccharomyces cerevisiae_SOA1; assay: as above
# Method: as §1
# [3] = tested on: Saccharomyces eubayanus_SOA1; assay: as above
# Method: as §1
# [4] = tested on: Saccharomyces uvarum_SOA1; assay: as above
# Method: as §1
# [5] = tested on: Saccharomyces uvarum_SOA2; assay: as above
# Method: as §1
# [6] = tested on: Aspergillus nidulans_CBF74694; assay: maximal culture density with compound as sole sulfur source (OD600); higher = better growth
# Method: as §1
# [7] = tested on: Aspergillus nidulans_XP_660563; assay: as above
# Method: as §1
# [8] = tested on: Aspergillus nidulans_XP_661711; assay: as above
# Method: as §1
# [9] = tested on: Aspergillus nidulans_XP_661733; assay: as above
# Method: as §1
# [10] = tested on: Metarhizium robertsii_XP_007823832; assay: as above
# Method: as §1
# [11] = tested on: Ogataea parapolymorpha_XP_013932458; assay: as above
# Method: as §1
# [12] = tested on: Saccharomyces cerevisiae_SOA1; assay: as above
# Method: as §1
# [13] = tested on: Saccharomyces uvarum_SOA2; assay: as above
# Method: as §1
# [14] = tested on: Aspergillus nidulans (IAM 2006)_astA; assay: maximal growth rate with compound as sole sulfur source (OD600 per h); higher = better growth / uptake of the sulfur source
# Method: as §1
# [15] = tested on: Aspergillus nidulans_CBF74694; assay: as above
# Method: as §1
# [16] = tested on: Aspergillus nidulans_CBF80346; assay: as above
# Method: as §1
# [17] = tested on: Aspergillus nidulans_XP_660563; assay: as above
# Method: as §1
# [18] = tested on: Aspergillus nidulans_XP_660670; assay: as above
# Method: as §1
# [19] = tested on: Aspergillus nidulans_XP_661711; assay: as above
# Method: as §1
# [20] = tested on: Aspergillus nidulans_XP_661733; assay: as above
# Method: as §1
# [21] = tested on: Aspergillus nidulans_XP_681611; assay: as above
# Method: as §1
# [22] = tested on: Fusarium oxysporum_ENH65823; assay: as above
# Method: as §1
# [23] = tested on: Metarhizium robertsii_XP_007821441; assay: as above
# Method: as §1
# [24] = tested on: Metarhizium robertsii_XP_007822519; assay: as above
# Method: as §1
# [25] = tested on: Metarhizium robertsii_XP_007823832; assay: as above
# Method: as §1
# [26] = tested on: Ogataea parapolymorpha_XP_013932458; assay: as above
# Method: as §1
# [27] = tested on: Ogataea parapolymorpha_XP_013935289; assay: as above
# Method: as §1
# [28] = tested on: Ogataea parapolymorpha_XP_013936897; assay: as above
# Method: as §1
# [29] = tested on: Saccharomyces cerevisiae_SOA1; assay: as above
# Method: as §1
# [30] = tested on: Saccharomyces eubayanus_SOA1; assay: as above
# Method: as §1
# [31] = tested on: Saccharomyces eubayanus_SOA2; assay: as above
# Method: as §1
# [32] = tested on: Saccharomyces uvarum_SOA1; assay: as above
# Method: as §1
# [33] = tested on: Saccharomyces uvarum_SOA2; assay: as above
# Method: as §1
# soa1 del = assay: as above
# Method: as §1
# [34] = tested on: Metarhizium robertsii_XP_007822519; assay: lag phase before growth; higher = slower start of growth
# Method: as §1
SMILES,lag phase before growth [1],lag phase before growth [2],lag phase before growth [3],lag phase before growth [4],lag phase before growth [5],maximal culture density [6],maximal culture density [7],maximal culture density [8],maximal culture density [9],maximal culture density [10],maximal culture density [11],maximal culture density [12],maximal culture density [13],maximal growth rate [14],maximal growth rate [15],maximal growth rate [16],maximal growth rate [17],maximal growth rate [18],maximal growth rate [19],maximal growth rate [20],maximal growth rate [21],maximal growth rate [22],maximal growth rate [23],maximal growth rate [24],maximal growth rate [25],maximal growth rate [26],maximal growth rate [27],maximal growth rate [28],maximal growth rate [29],maximal growth rate [30],maximal growth rate [31],maximal growth rate [32],maximal growth rate [33],maximal growth rate (soa1 del),lag phase before growth [34]
CCCCS(=O)(=O)O [Butanesulfonate],6.98 h,9.34 h,9.71 h,8.4 h,12.7 h,0.2,0.355,0.267,0.279,0.604,0.274,1.58,1.71,0.0185,0.00269,0.00447,0.00657,0.00393,0.00392,0.00595,0.00666,0.00349,0.00375,0.00366,0.0152,0.00411,0.087,0.0049,0.0882,0.0734,0.0837,0.0795,0.0878,0.00398,
CCS(=O)(=O)O [Ethanesulfonate],8.69 h,10.3 h,9.96 h,9.26 h,15.6 h,0.182,0.314,0.209,0.238,0.494,0.237,1.58,1.76,0.0175,0.00278,0.00396,0.00579,0.0037,0.00368,0.00379,0.00641,0.00347,0.00304,0.0594,0.0141,0.00424,0.0784,0.00513,0.076,0.0681,0.0754,0.0735,0.081,0.00466,7.36 h
